Earlier results, collected in patent US20110206693A1, “LYSINE RIBOSWITCH AND COMPOSITIONS AND USES THEREOF” (priority 2008, published 2011).

System: lysine riboswitch
Details: binding to the riboswitch RNA, relative to lysine; Sudarsan 2003 and Blount 2007
For `NCCSC[C@H](N)C(=O)O` [AEC, S-(2-aminoethyl)-L-cysteine], the “lower affinity than lysine for the RNA” value is given as 30 fold. In the case of `NCCS(=O)(=O)C[C@H](N)C(=O)O` [AESA, L-3-[(2-aminoethyl)-sulfonyl]-alanine], the “lower affinity than lysine for the RNA” value is listed as 7 fold.

Same assay, conditions: qualitative, compared with lysine
In the case of `NCCC[C@H](N)C(=O)O` [L-ornithine], the “binding / recognition by the lysine riboswitch (in words)” value (shortened to “binding / recognition”) is listed as “not efficiently bound”. In the case of `NCCCCC[C@H](N)C(=O)O` [L-α-homolysine], the “binding / recognition” value is listed as “not efficiently bound”. In the case of `C[N+](C)(C)CCCC[C@H](N)C(=O)[O-]` [N^6-trimethyl-L-lysine], the “binding / recognition” value is given as “precludes efficient recognition”. In the case of `N=C(N)NCCCC[C@H](N)C(=O)O` [homoarginine], the “binding / recognition” value is given as “precludes efficient recognition”.
